The values below come from patent US8088814B2, “Methods and compositions for the treatment of psychiatric disorders” (priority 2001, dated 2012).

Read-outs that look alike come from different tables or passages of the source.

The test system of one data set is schizophrenic patients. As to the method: The statistics were performed according to the criterion of “last observation carried forward” (LOCF), i.e., the last PANSS scores of the patients who dropped out before the end of the study were carried forward to all subsequent observation days. For the comparison of the main efficacy parameter, the mean change in the PANSS between the two treatment groups, t-tests for independent samples were employed. […] For all other comparisons, two-tailed t-tests were used.

`Cc1nc2n(c(=O)c1CCN1CCC(c3noc4cc(F)ccc34)CC1)CCCC2O` (stereo not drawn) [9-OH-risperidone]: the “differences in the plasma levels between risperidone-celecoxib and risperidone-placebo treatment” value (human, in vivo) was “without statistical significance”.

Turning to risperidone [placebo and risperidone], the “differences in the plasma levels between risperidone-celecoxib and risperidone-placebo treatment” value (plasma, during the study (FIG. 4)) is reported as “without statistical significance”. Also, the PANSS global score in the data set with schizophrenic patients (at the start of the study) stood at 37.2±7.1. The same compound had a PANSS negative score in the data set on schizophrenic patients (at the start of the study) of 21.1±5.5. In addition, the PANSS total score with schizophrenic patients (at the start of the study) is reported as 75.4±12.9. Further, the PANSS positive score is 17.2 ± 4.6 in the data set with schizophrenic patients (week 0 (start of the study), mean ± SD, 25 patients per group); 17.2±4.6 in the data set on schizophrenic patients (week 0 (start of the study), mean ± SD, 25 patients per group, listed as risperidone-placebo); 16.2 ± 4.6 in the data set on schizophrenic patients (week 1, LOCF); 15 ± 4.5 with schizophrenic patients (week 2, LOCF); 14.5 ± 4.6 with schizophrenic patients (week 3, LOCF); 14.2 ± 4.4 in the data set with schizophrenic patients (week 4, LOCF). This compound had a PANSS positive score with schizophrenic patients (week 5, LOCF) of 13.3 ± 4.4.

In the case of `Cc1ccc(-c2cc(C(F)(F)F)nn2-c2ccc(S(N)(=O)=O)cc2)cc1` [celecoxib], the “treatment of depressive states” value with schizophrenic patients (add-on celecoxib therapy in schizophrenic patients) is “useful”. For the same compound, the “PANSS items lack of contact, emotional isolation, passive-apathic isolation, social withdrawal, depression, motor retardation” value in the data set on schizophrenic patients (detailed item analysis, good celecoxib-responders vs placebo group, add-on to risperidone) is listed as “therapeutic effects”. In addition, in the data set on schizophrenic patients (response to celecoxib but not to placebo, add-on to risperidone), the “factor analysis: items subsumed under the label agitation” value is “good therapeutic response”.
